One experiment has as its system 4T1-Fluc tumour. The experiment can be described thus: 4T1-Fluc BALB/c homograft mouse model. Type of experiment: in vivo. The following applies: daily oral; vorinostat, abemaciclib 60 mg/kg.
In experiment [1] the test system is six solid tumour cell lines. Description: CCK-8 cytotoxicity, summary over six cell lines. The class given is cell-based. The following applies: read-out: IC50 values in these cell lines.
The subject of experiment [2] is MDA-MB-468, MDA-MB-231, SK-OV-3 and OVCAR-5 cells. Description: cell cycle assay. The following applies: 48 h, quarter, half of IC50 and IC50. The class given is cell-based, human.

By IC50 is commonly meant the concentration at which inhibition is half-maximal.

In the case of `CCN1CCN(Cc2ccc(Nc3ncc(F)c(-c4cc(F)c5nc(C)n(C(C)C)c5c4)n3)nc2)CC1` [Abemaciclib], the tumour volume result in the experiment on 4T1-Fluc tumour is reported as “decreased only slightly”. The IC50 in experiment [1] was greater than 1000 nM. Further, in experiment [2], the “cell cycle distribution (G1-phase arrest)” value is on record as “did not induce G1 to S phase arrest”.

For `O=C(CCCCCCC(=O)Nc1ccccc1)NO` [Vorinostat], the tumour volume result with 4T1-Fluc tumour is reported as “barely impacted”. For the same molecule, the “cell cycle distribution (G1-phase arrest)” value in experiment [2] was “did not induce G1 to S phase arrest”.

Source of the values: PMC6217055 (Theranostics, 2018).
